The record followed here is patent publication EP0547317A1, “Endothelin antagonists” (TAKEDA CHEMICAL INDUSTRIES, LTD., priority 1991, dated 1993).

This assay deals with porcine coronary smooth muscles. Kind of assay: Assay of constrictor suppressing activity on porcine coronary smooth muscles (antagonism of endothelin-1 constriction). It counts as cell-based. The following applies: for pA₂: antagonistic activity on constriction by endothelin-1 given cumulatively about 15 minutes after the compound, negative logarithm of molar concentration of antagonist shifting the dose response curve by a factor of 2; for Relative potency: antagonistic activity on the constriction of porcine coronary smooth muscles, Example 1 = 100. As to the method: • (1) Assay of Constrictor Suppressing Activity on Porcine Coronary Smooth Muscles Spiral strips 2 mm x 15 mm prepared from the coronary right ramus circumflexus from which the adventitial connective tissues and the endothelial cells were removed were set to 4 ml organ baths. The tension of each strip was detected by a force displacement transducer UL-10GR (Minebea), and recorded by a polygraph (NEC Sanei). The organ baths were maintained at 37°C, and filled with a Krebs-Henseleit solution (composition: 118 mM NaCl, 4.7 mM KCl, 2.5 mM CaCl₂, 1.2 mM KH₂PO₄, 25.0 mM NaHCO₃, 1.2 mM MgSO₄, 10.0 mM glucose) gassed with 95% O₂ and 5% CO₂. A tension of 1.25 to 1.5 g was applied to each of the strips, followed by equilibration for 1.5 hours. 60 mM KCl was repeatedly applied thereto at intervals of 30 minutes until the constriction response became constant. After additional equilibration for 1.5 hours, a sample for assay was given thereto. The constriction of the strips was normalized by the constriction response of the individual strips to 60 mM KCl and statistically processed. The suppressing activity was determined as a pA₂ value by giving endothelin-1 cumulatively about 15 minutes after the compound having a predetermined concentration was given, and comparing the constriction thereof with that of a control sample in which only endothelin-1 was given. […] Such a case has not been reported yet. […] The affinity for the receptor was assayed by the following method.

Bridge positions count the residues as written; N and C are the ends. Peptide text beside a SMILES is read from it.

On to `CC[C@H](C)[C@H](NC(=O)[C@H](CC(C)C)NC(=O)[C@@H](NC(=O)[C@H](CC(C)C)NC(=O)[C@H](Cc1c[nH]cn1)NC(=O)[C@@H]1CSSC[C@H](N)C(=O)N[C@@H](CO)C(=O)N[C@H]2CSSC[C@H](NC(=O)[C@H](CCC(=O)O)NC(=O)[C@H](CCCCN)NC(=O)[C@H](CC(=O)O)NC(=O)[C@H](C)NC(=O)[C@H](CC(C)C)NC(=O)[C@H](CO)NC(=O)[C@H](CO)NC2=O)C(=O)N[C@@H](C(C)C)C(=O)N[C@@H](Cc2ccc(O)cc2)C(=O)N[C@@H](Cc2ccccc2)C(=O)N1)[C@@H](C)O)C(=O)N[C@@H](Cc1c[nH]c2ccccc12)C(=O)O` [Example 16, [Ala⁷, Thr¹⁸, Leu¹⁹]-ET-1] (H-CSCSSLADKECVYFCHLTLIW-OH; disulfide 1-15, 3-11), for which the pA₂ is 7.2 and the Relative potency was 32.

Consider `CC[C@H](C)[C@H](NC(=O)[C@H](CC(C)C)NC(=O)[C@@H](NC(=O)[C@H](CC(C)C)NC(=O)[C@H](Cc1c[nH]cn1)NC(=O)[C@@H]1CSSC[C@H](N)C(=O)N[C@@H](CO)C(=O)N[C@H]2CSSC[C@H](NC(=O)[C@H](CCC(=O)O)NC(=O)[C@H](CCCCN)NC(=O)[C@H](CC(=O)O)NC(=O)[C@H](CCSC)NC(=O)[C@H](CC(C)C)NC(=O)[C@H](CO)NC(=O)[C@H](CO)NC2=O)C(=O)N[C@@H](C(C)C)C(=O)N[C@@H](Cc2ccc(O)cc2)C(=O)N[C@@H](Cc2ccccc2)C(=O)N1)[C@@H](C)O)C(=O)N[C@@H](Cc1c[nH]c2ccccc12)C(=O)O` [Example 1, [Thr¹⁸, Leu¹⁹]-ET-1] (H-CSCSSLMDKECVYFCHLTLIW-OH; disulfide 1-15, 3-11), for which the pA₂ was found to be 7.7 and the Relative potency is listed as 100.
